Source: PubChem BioAssay AID2060890 (Molecular Pharmacology Branch, DTP, NCI, 2025)

Test system: LG0703-F948-PDC complex spheroid viability
Assay: Anticancer human tumor LG0703-F948-PDC patient-derived lung adenocarcinoma cell line growth inhibition [RAS]
Details: for IC50: curve of first compound; for viability, T/C: stronger effect = lower value
Method in brief: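 Multi-cell-type spheroids: tumor cells plus HUVEC endothelial cells and mesenchymal stem cells. RAS-pathway inhibitors were combined with targeted agents, each dosed in half-log steps down from clinical Cmax, or from 10 microM when Cmax was unknown.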
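Further: spheroids exposed to agents for 7 days.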
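Wherever viability, T/C is given: 100% = DMSO vehicle wells.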

## C=CC(=O)N1CCN(c2nc(OCC3CCCN3C)nc3c(F)c(-c4nc(N)cc(C)c4C(F)(F)F)c(Cl)cc23)C(C)C1 (centres undefined) + CCn1c(-c2cccnc2C(C)OC)c2c3cc(ccc31)N1CCOC(CC(NC(=O)C(C(C)C)N(C)C(=O)C3(F)CCN(C(=O)C#CC(C)(C)N(C)C)CC3)C(=O)N3CCCC(N3)C(=O)OCC(C)(C)C2)C1
Second compound 0.000949 µM
  IC50: > 1000 nM
Second compound 0.003 µM
  IC50: > 1000 nM
Second compound 0.00949 µM
  IC50: > 1000 nM
Second compound 0.03 µM
  IC50: > 1000 nM
Second compound 0.0949 µM
  IC50: > 1000 nM
Second compound 0.3 µM
  IC50: < 3.16 nM
Second compound 0.000949 µM, first compound 0.00316 µM
  viability, T/C: 91.1%
Second compound 0.000949 µM, first compound 0.01 µM
  viability, T/C: 92.5%
Second compound 0.000949 µM, first compound 0.0316 µM
  viability, T/C: 90.4%
Second compound 0.000949 µM, first compound 0.1 µM
  viability, T/C: 88%
Second compound 0.000949 µM, first compound 0.316 µM
  viability, T/C: 89.5%
Second compound 0.000949 µM, first compound 1 µM
  viability, T/C: 116%
Second compound 0.003 µM, first compound 0.00316 µM
  viability, T/C: 95.5%
Second compound 0.003 µM, first compound 0.01 µM
  viability, T/C: 85.6%
Second compound 0.003 µM, first compound 0.0316 µM
  viability, T/C: 99.5%
Second compound 0.003 µM, first compound 0.1 µM
  viability, T/C: 87.7%
Second compound 0.003 µM, first compound 0.316 µM
  viability, T/C: 80.7%
Second compound 0.003 µM, first compound 1 µM
  viability, T/C: 89.6%
Second compound 0.00949 µM, first compound 0.00316 µM
  viability, T/C: 89.6%
Second compound 0.00949 µM, first compound 0.01 µM
  viability, T/C: 95.1%
Second compound 0.00949 µM, first compound 0.0316 µM
  viability, T/C: 88.4%
Second compound 0.00949 µM, first compound 0.1 µM
  viability, T/C: 99%
Second compound 0.00949 µM, first compound 0.316 µM
  viability, T/C: 101%
Second compound 0.00949 µM, first compound 1 µM
  viability, T/C: 87.3%
Second compound 0.03 µM, first compound 0.00316 µM
  viability, T/C: 91.1%
Second compound 0.03 µM, first compound 0.01 µM
  viability, T/C: 89.3%
Second compound 0.03 µM, first compound 0.0316 µM
  viability, T/C: 78.1%
Second compound 0.03 µM, first compound 0.1 µM
  viability, T/C: 92.6%
Second compound 0.03 µM, first compound 0.316 µM
  viability, T/C: 107%
Second compound 0.03 µM, first compound 1 µM
  viability, T/C: 81.6%
Second compound 0.0949 µM, first compound 0.00316 µM
  viability, T/C: 78.2%
Second compound 0.0949 µM, first compound 0.01 µM
  viability, T/C: 79.1%
Second compound 0.0949 µM, first compound 0.0316 µM
  viability, T/C: 76.7%
Second compound 0.0949 µM, first compound 0.1 µM
  viability, T/C: 85.3%
Second compound 0.0949 µM, first compound 0.316 µM
  viability, T/C: 77.3%
Second compound 0.0949 µM, first compound 1 µM
  viability, T/C: 77.4%
Second compound 0.3 µM, first compound 0.00316 µM
  viability, T/C: 51.9%
Second compound 0.3 µM, first compound 0.01 µM
  viability, T/C: 47.8%
Second compound 0.3 µM, first compound 0.0316 µM
  viability, T/C: 47.7%
Second compound 0.3 µM, first compound 0.1 µM
  viability, T/C: 44.4%
Second compound 0.3 µM, first compound 0.316 µM
  viability, T/C: 59.9%
Second compound 0.3 µM, first compound 1 µM
  viability, T/C: 50.5%

## CC1(C)CCC(Nc2ncc(C(F)(F)F)c(-c3c[nH]c4c(P(C)(C)=O)c(C#N)ccc34)n2)CN1 (centres undefined) + CCn1c(-c2cccnc2C(C)OC)c2c3cc(ccc31)N1CCOC(CC(NC(=O)C(C(C)C)N(C)C(=O)C3(F)CCN(C(=O)C#CC(C)(C)N(C)C)CC3)C(=O)N3CCCC(N3)C(=O)OCC(C)(C)C2)C1
Second compound 0.000949 µM
  IC50: > 300 nM
Second compound 0.003 µM
  IC50: > 300 nM
Second compound 0.00949 µM
  IC50: > 300 nM
Second compound 0.03 µM
  IC50: > 300 nM
Second compound 0.0949 µM
  IC50: > 300 nM
Second compound 0.3 µM
  IC50: < 0.949 nM
Second compound 0.000949 µM, first compound 0.000949 µM
  viability, T/C: 83.4%
Second compound 0.000949 µM, first compound 0.003 µM
  viability, T/C: 70.4%
Second compound 0.000949 µM, first compound 0.00949 µM
  viability, T/C: 67.1%
Second compound 0.000949 µM, first compound 0.03 µM
  viability, T/C: 60.1%
Second compound 0.000949 µM, first compound 0.0949 µM
  viability, T/C: 67.3%
Second compound 0.000949 µM, first compound 0.3 µM
  viability, T/C: 56.5%
Second compound 0.003 µM, first compound 0.000949 µM
  viability, T/C: 89.2%
Second compound 0.003 µM, first compound 0.003 µM
  viability, T/C: 84.9%
Second compound 0.003 µM, first compound 0.00949 µM
  viability, T/C: 58.1%
Second compound 0.003 µM, first compound 0.03 µM
  viability, T/C: 62.2%
Second compound 0.003 µM, first compound 0.0949 µM
  viability, T/C: 61.5%
Second compound 0.003 µM, first compound 0.3 µM
  viability, T/C: 68.7%
Second compound 0.00949 µM, first compound 0.000949 µM
  viability, T/C: 75%
Second compound 0.00949 µM, first compound 0.003 µM
  viability, T/C: 72.7%
Second compound 0.00949 µM, first compound 0.00949 µM
  viability, T/C: 77.8%
Second compound 0.00949 µM, first compound 0.03 µM
  viability, T/C: 57.7%
Second compound 0.00949 µM, first compound 0.0949 µM
  viability, T/C: 64.8%
Second compound 0.00949 µM, first compound 0.3 µM
  viability, T/C: 67.2%
Second compound 0.03 µM, first compound 0.000949 µM
  viability, T/C: 86.5%
Second compound 0.03 µM, first compound 0.003 µM
  viability, T/C: 79.5%
Second compound 0.03 µM, first compound 0.00949 µM
  viability, T/C: 62.6%
Second compound 0.03 µM, first compound 0.03 µM
  viability, T/C: 66.1%
Second compound 0.03 µM, first compound 0.0949 µM
  viability, T/C: 59.4%
Second compound 0.03 µM, first compound 0.3 µM
  viability, T/C: 60.4%
Second compound 0.0949 µM, first compound 0.000949 µM
  viability, T/C: 82.9%
Second compound 0.0949 µM, first compound 0.003 µM
  viability, T/C: 68.2%
Second compound 0.0949 µM, first compound 0.00949 µM
  viability, T/C: 65%
Second compound 0.0949 µM, first compound 0.03 µM
  viability, T/C: 55%
Second compound 0.0949 µM, first compound 0.0949 µM
  viability, T/C: 65.7%
Second compound 0.0949 µM, first compound 0.3 µM
  viability, T/C: 63.7%
Second compound 0.3 µM, first compound 0.000949 µM
  viability, T/C: 39.1%
Second compound 0.3 µM, first compound 0.003 µM
  viability, T/C: 49.9%
Second compound 0.3 µM, first compound 0.00949 µM
  viability, T/C: 48.5%
Second compound 0.3 µM, first compound 0.03 µM
  viability, T/C: 46.1%
Second compound 0.3 µM, first compound 0.0949 µM
  viability, T/C: 48.8%
Second compound 0.3 µM, first compound 0.3 µM
  viability, T/C: 46.2%
